Like-named read-outs stand apart in the source and are kept apart here. Bridge positions count the residues as written; N and C are the ends. Square brackets hold non-standard residues; d marks the D form. Ends that are not written are not given here. I, II: the chains in the order shown. dPra = C#CC[C@@H](N)C(=O)O; C8N3 = not defined here
What was measured:
GSK3β = target: T1, GSK3β (Homo sapiens, UniProt P49841); experiment: Specificity ELISA, immobilized ligand probed with His-tagged kinases; settings: A450 normalized to Akt1-S473E binding
T1 construct: a set of His-tagged active protein kinase domains from the AGC family; purchased Invitrogen
T1 sequence (P49841 56-340 limits assumed, species assumed): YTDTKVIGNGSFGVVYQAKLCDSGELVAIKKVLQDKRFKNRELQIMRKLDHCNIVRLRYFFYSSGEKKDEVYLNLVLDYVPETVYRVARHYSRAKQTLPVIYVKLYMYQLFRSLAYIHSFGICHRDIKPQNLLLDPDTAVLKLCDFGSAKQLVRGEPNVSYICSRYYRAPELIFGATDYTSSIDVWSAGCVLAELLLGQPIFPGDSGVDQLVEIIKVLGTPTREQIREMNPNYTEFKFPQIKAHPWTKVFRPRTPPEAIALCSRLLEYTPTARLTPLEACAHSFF
Experimental: (§1) Biotinylated ligand was immobilized on Streptavidin plates and probed with 25 nM His-tagged kinase followed by anti-Histag antibody-HRP conjugate. Values represent the mean A450 obtained from three experiments after normalization to Akt1-S473E binding. The error bars show the standard error.
(§2) The specificity of the anchor ligand, biligand, and triligand developed in Example 1 was analyzed using a battery of protein kinases. […] Akt1-S473E was expressed and purified as described above.
(§3) The relative affinity of each kinase was determined by probing with an anti-His6 antibody and normalizing the response to Akt1-S473E. All proteins were diluted in Akt blocking buffer to a final concentration of 24 nM prior to use. Ligands were diluted in Akt blocking buffer to a final concentration of 2.5 μM prior to use. 100 μL of each ligand (250 pmol) was added to each well of a HBC streptavidin-coated 96-well plate. The ligands were bound at 4° C. for 1 hour followed by addition of D-biotin to a final concentration of 500 μM. After 10 minutes at 4° C., the wells were washed three times with Akt blocking buffer and blocked overnight in 5% non-fat milk.
(§4) The wells were washed three times in Akt blocking buffer and 50 μL of active protein was applied to each well. After binding for 120 minutes at 4° C., the wells were washed three times in Akt blocking buffer to remove unbound protein. 50 μL of horseradish peroxidase-conjugated Anti-His6 antibody was added at a dilution of 1:100 (His Probe (H-3) HRP conjugate, Santa Cruz Biotechnology). The antibody-HRP conjugate was incubated for 60 minutes and the wells were washed 3 times in TBST and once in TBS. 50 μL of peroxidase substrate (KPL) was added and the resulting color change was quenched with 50 μL 1 M H2SO4. The A450 measured on a 96-well plate reader. […] The mean value for the triplicates was calculated and plotted and the error bars were generated from the standard error of the mean (GraphPad Prism).

Akt1 = experiment: as above; set-up: species or system H. sapiens; settings: A450 normalized to Akt1-S473E binding; kinase panel
Experimental: as §1, §2, §3, §4

Akt-S473E [1] = settings: [2H10] antibody directed toward the C-terminus
From the text: Immobilized anchor, biligand, and triligand were probed with varying concentrations of […]. Binding was detected by an anti-Akt1 monoclonal antibody ([2H10]) followed by an anti-mouse secondary antibody-HRP conjugate. The fraction bound was normalized and plotted against the concentration of Akt-S473E on a log scale.
The C-terminus is effectively on the “backside” of the kinase domain, opposite the active site.

Akt1-S473E-T308P = target: Akt1-S473E-T308P
From the text: FIG. 22A: Velocity vs. [Peptide substrate] with varying concentration of inhibitory triligand. FIG. 22B: Velocity vs. [ATP] with varying concentration of inhibitory triligand.
FIGS. 23A-23D show determination of Ki′ and inhibition mode for triligand with respect to peptide substrate. FIG. 23A: Plot of 1/KM(app) vs. [Triligand]. KM(app) were obtained from nonlinear regression analysis of velocity vs. [Peptide] curves obtained with varied concentrations of triligand (Graphpad). The error bars represent the standard error of KM(app) by nonlinear regression. 95% confidence intervals are shown as dotted lines. […] FIG. 23B: Plot of 1/Vmax(app) vs. [Triligand]. Values for Vmax(app) and standard error were obtained by nonlinear regression as described above. […] FIG. 23C: Dixon plot of 1/v vs. [Triligand] at various [Peptide]. Data from low peptide concentrations were removed to account for possible substrate depletion. […] FIG. 23D: Cornish-Bowden plot of [Peptide]/v vs. [Triligand] at various [Peptide]. The intersection of the lines gives the −Ki′.
FIG. 24A: Plot of 1/KM(app) vs. [Triligand]. KM(app) were obtained from nonlinear regression analysis of velocity vs. [ATP] curves obtained with varied concentrations of triligand (Graphpad). The error bars represent the standard error of KM(app) by nonlinear regression. […] FIG. 24B: Plot of 1/Vmax(app) vs. [Triligand]. […] FIG. 24C: Dixon plot of 1/v vs. [Triligand] at various [ATP]. Data from low ATP concentrations were removed due high counting error resulting from low counts per minute (cpm).
Two standard enzyme kinetic assays were carried out to determine the mode of Akt1 inhibition by the triligand (Segel 1975). For these assays, the kinase activity is measured under varying substrate and triligand concentrations. The resulting data can be interpreted so that the nature of the competition between the triligand and the substrate for the relevant kinase binding site is determined. For example, if the triligand and ATP competed for the same binding pocket, the maximum velocity (Vmax) of the kinase would be unchanged while the Michaelis constant (KM) would increase. The plots can also be used as a means of determining the inhibition constant (Ki) of the triligand.
Akt-S473E-T308P was prepared by incubating 75 μg Akt-S473E with 1 μg PDK1 (Sigma) in the presence of 500 μM ATP in 1× reaction buffer (25 mM Tris-Cl (pH=7.5), 10 mM MgCl2, 2 mM DTT, 1× protease inhibitors (Roche), 1× phosphatase inhibitors (Roche)). The phosphorylation reaction proceeded for 40 minutes at room temperature followed by addition of 25 mM EDTA. The quenched reaction was added to 40 μL Anti-FLAG M2 agarose (Sigma) and allowed to bind for 2 hr at 4° C. The resin was washed in FLAG Wash Buffer (20 mM HEPES (pH=7.4), 150 mM NaCl, 1× protease inhibitors (Roche), 1× phosphatase inhibitors (Roche)) and the Akt1-S473E-T308P eluted with FLAG Elution Buffer (FLAG wash buffer+0.15 mg/mL 3×FLAG peptide) for 30 minutes at room temperature. The concentration of protein was determined by Bradford assay.

MEK1 = MEK1 (Homo sapiens, UniProt Q02750); settings: A450 normalized to Akt1-S473E binding
Sequence of MEK1 (Q02750 68-361 limits assumed, species assumed): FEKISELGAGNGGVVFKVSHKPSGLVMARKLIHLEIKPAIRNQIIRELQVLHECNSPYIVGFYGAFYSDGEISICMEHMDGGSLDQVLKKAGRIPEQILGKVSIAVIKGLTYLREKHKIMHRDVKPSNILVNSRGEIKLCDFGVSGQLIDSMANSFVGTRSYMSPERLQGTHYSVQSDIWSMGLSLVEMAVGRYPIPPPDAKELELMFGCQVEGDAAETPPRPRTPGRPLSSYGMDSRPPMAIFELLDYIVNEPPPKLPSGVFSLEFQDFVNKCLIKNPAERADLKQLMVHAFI
Experimental: as §1, §2
The relative affinity of each kinase was determined by probing with an anti-His6 antibody and normalizing the response to Akt1-S473E. All proteins were diluted in Akt blocking buffer to a final concentration of 24 nM prior to use. Ligands were diluted in Akt blocking buffer to a final concentration of 2.5 μM prior to use. 100 μL of each ligand (250 pmol) was added to each well of a HBC streptavidin-coated 96-well plate. The ligands were bound at 4° C. for 1 hour followed by addition of D-biotin to a final concentration of 500 μM. […]
The wells were washed three times in Akt blocking buffer and 50 μL of active protein was applied to each well. […] The A450 measured on a 96-well plate reader. […] The mean value for the triplicates was calculated and plotted and the error bars were generated from the standard error of the mean (GraphPad Prism).

Akt1-S473E = settings: SPR, from kinetic parameters, 10° C., Akt1-S473E 9000 nM to 1 nM
Experimental: For this experiment, the biotinylated triligand was immobilized on a streptavidin-derivatized biacore chip and probed with Akt-S473E at concentrations ranging from 9 μM to 1 nM.
Triligand binding affinity was further analyzed by SPR using a Biacore T100. A Streptavidin Chip (Series S, G.E. Healthcare) was conditioned as recommended by the manufacturer. Biotinylated ligand was diluted into HBSP+ Buffer (G.E. Healthcare) to a final concentration of 100 nM and 137 RU was immobilized on the chip. Akt1-S473E was prepared as described previously and subjected to buffer exchange into HBSP+ using Zeba Desalting Columns (Pierce). Serial dilutions of the enzyme were made in HBSP+ buffer (9000 nM to 1 nM) and flowed over the chip at 50 μL/minute. Binding and dissociation were carried out at 10° C. with a contact time of 360 seconds, a dissociation time of 400 seconds, and a stabilization time of 200 seconds. The response was corrected using an unmodified reference flow cell. Kinetic constants were obtained from the sensograms and used to calculate the dissociation constant.

Akt [2] = experiment: Immunoprecipitation of Akt from OVCAR3 cell lysates with immobilized ligands; type: binding; settings: EGF and insulin induced or control, Western blot with pan-Akt antibody
Experimental: A representative 12% gel stained with Coomassie and imaged. Lane 1: Lysate, Lane 2: Anchor resin, Lane 3: Biligand resin, Lane 4: Triligand resin, Lane 5: 5G3 mAb resin.
After 18 hours at 4° C., resins were washed exhaustively, eluted with SDS-PAGE sample buffer, and analyzed by Western blotting. 1. Blank resin, 2. Anchor, 3. Biligand, 4. Triligand, 5. [5G3] mAb, L. lysate.
For the IP experiments, the anchor, biligand, and triligands were immobilized on streptavidin-agarose, and each resin was panned with OVCAR3 cell lysates obtained from untreated cells or cells stimulated with a combination of epidermal growth factor (EGF) and insulin.
OVCAR3 cells were grown in RPMI-1640 media containing 10% fetal bovine serum, penicillin, and streptomycin. Passage 4 cells were grown to ˜60% confluence and treated with insulin and EGF at final concentration of 10 μg/mL and 20 ng/mL respectively (induced) or mock treated (control). Cells were grown for an additional 24 hours and then lysed with lysis buffer (10 mM Tris-Cl (pH=7.5), 100 mM NaCl, 1% (v/v) Triton X-100, 0.1% SDS (w/v), 0.5% deoxycholate, 1 mM DTT, 1 mM EDTA, 1× PhosStop phosphatase inhibitors (Roche), 1× Complete protease inhibitors (Roche). Cell lysate protein concentrations were determined by Bradford assays. […]

Akt-S473E [3] = experiment: ELISA with immobilized Akt-S473E, relative affinity of biotinylated ligands; type: binding, H. sapiens; settings: triligand versus biligand
Experimental: Akt-S473E was immobilized on Ni-NTA plates and incubated with varying concentrations of biotinylated peptide. All values were normalized to the binding observed at saturation.
The affinity of the anchor ligand, biligand, and triligand developed in Example 1 was determined by ELISA with immobilized Akt-S473E.
3 μg of Akt-S473E was added to each well in a HisSorb Ni-NTA plate (Qiagen) in 50 μL of ELISA blocking buffer (25 mM Tris-Cl (pH=7.5), 150 mM NaCl, 10 mM MgCl2, 0.1% (v/v) Tween-20, and 4 mg/mL BSA). 50 μL of imidazole blocking buffer (25 mM Tris-Cl (pH=7.5), 150 mM NaCl, 10 mM MgCl2, 0.1% (v/v) Tween-20, 100 mM imidazole, and 4 mg/mL BSA) was added to the control wells. After 18 hours at 4° C., the wells were washed with ELISA blocking buffer and 50 μL of each ligand dilution was added in ELISA blocking buffer. The ligands were bound at 4° C. for 120 minutes followed by three washed in ELISA blocking buffer. 50 μL of horseradish peroxidase-conjugated streptavidin (SA-HRP, Thermo) was added (1:5000 dilution in ELISA blocking buffer) and incubated for 70 minutes at 4° C. […] 50 μL of peroxidase substrate (KPL) was added to generate the final signal which was quenched in 1 M H2SO4 and quantitated on a 96-well plate reader at X=450 nm. The Net A450 was calculated by subtracting the A450 of each blank well (No Akt-S473E) from the experimental well. […]

Akt2 = target: T2, Akt2 (Homo sapiens, UniProt P31751); experiment: Akt2 kinase activity assay, p-GSK-3a/b Western blot; type: biochemical; settings: p-GSK-3a/b abundance, active Akt2
T2 construct: purchased Abcam
T2 sequence (P31751 whole entry, species assumed): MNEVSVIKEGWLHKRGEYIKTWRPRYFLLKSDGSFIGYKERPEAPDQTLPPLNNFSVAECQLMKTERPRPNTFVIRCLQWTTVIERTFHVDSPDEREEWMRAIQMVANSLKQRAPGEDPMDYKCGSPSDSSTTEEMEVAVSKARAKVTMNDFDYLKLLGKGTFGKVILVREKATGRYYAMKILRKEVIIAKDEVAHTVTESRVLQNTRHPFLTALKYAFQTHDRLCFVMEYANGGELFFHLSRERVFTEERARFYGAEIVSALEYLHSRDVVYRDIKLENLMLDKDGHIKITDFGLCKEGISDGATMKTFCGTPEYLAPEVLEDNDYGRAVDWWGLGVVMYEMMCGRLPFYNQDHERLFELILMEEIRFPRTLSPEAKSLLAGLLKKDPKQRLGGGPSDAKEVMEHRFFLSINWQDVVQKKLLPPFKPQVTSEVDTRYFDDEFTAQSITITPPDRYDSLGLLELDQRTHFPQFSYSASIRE
From the text: PCC compositions, developed using the epitope targeting strategy, make non-traditional enzyme inhibitors. If Akt2 is activated by phosphorylation of Ser474 then, in that state, it phosphorylates GSK-3a/b. If it is further activated via a steric effect, then it will produce more p-GSK-3a/b. If that same Akt2 is inhibited, then it will produce less p-GSK-3a/b. Thus, the signature of Akt inhibition (or activation) is read out as p-GSK-3a/b abundance, relative to the DMSO control. Assays are shown at right in the form of Western Blots. The DMSO column gives the baseline level. The n-terminal triligand the biligand, the dimer of the n-terminal triligand, and the commercial monoclonal antibody all activate Akt relative to DMSO. The c-terminal triligand inhibits Akt. The ‘hi’ and ‘low’ blots correspond to long and short development times, respectively. The Akt2 protein used for the inhibition assay is active Akt2 that is phosphorylated at Thr308, and is at least partially phosphorylated at Ser474, since the antibody for pSer474 detects the pSer474.

Akt [4] = experiment: Immunofluorescent imaging of Akt in fixed OVCAR3 cells; type: cell-based; settings: unstimulated or EGF-treated
Experimental: OVCAR3 cells were grown on polylysine coated coverslips and treated with either 500 ng/mL EGF (Sigma) or vehicle control for 10 minutes. Cells were then fixed with 10% formaldehyde for 15 min at 37° C., washed with PBS, permeablized by incubating with 0.1% Triton X-100 for 10 min at room temperature, and blocked with 5% goat serum. Permeabilized cells were stained with either a fluorescein-conjugated Pan Akt antibody (R&D Systems IC2055F, 10 μg/mL) overnight or 1 μM fluorescein conjugated biligand for 1 hour. Images were acquired using a Zeiss Pascal 5 Laser Scanning Microscope (Caltech Biological Imaging Center) and surface plots were generated with ImageJ software (NIH). For this assay, Akt was expected to locate to the cell membrane following stimulation of a receptor tyrosine kinase such as epidermal growth factor receptor (EGFR) by its ligand (EGF). Images of unstimulated and stimulated cells clearly reveal that this was the case (FIG. 18).

Akt [5] = target: T3, Akt (Homo sapiens, UniProt P31751); experiment: Detection of Akt from OVCAR3 cell lysate by anti-Ser474 Akt2 capture agents; type: binding
T3 construct: endogenous in cells; host or cells: OVCAR3
T3 sequence (P31751 whole entry): as the sequence (P31751 whole entry, species assumed) above
From the text: The characteristics of this best ligand were improved through use of sequential in situ click chemistry, as described in Capture Agents and Related Compositions, Methods, and Systems CIT 5164-P; and Akt-Specific Capture Agents, Compositions, and Methods of Using and Making. CIT 5917-P, Agnew, et al., Angew. Chem. 121, p 5044-5048 (2009), and Millward, et al., J. Am. Chem. Soc. 133, 1820 (2011), incorporated herein by reference in their entireties. For these steps, the capture agent that was identified in Steps (1)-(4) was improved into a biligand (FIG. 36b), and then a triligand (FIG. 36c).

Compound: CCC(C)[C@H](NC(=O)[C@H](CCCNC(=N)N)NC(=O)[C@H](CCC(=O)O)NC(=O)[C@H](Cc1cnc[nH]1)NC(=O)[C@H](CCCNC(=N)N)NC(=O)C(CCCCCCCCn1cc(CCCC(=O)NC(CCCCCCCCn2cc(C[C@H](NC(C)=O)C(=O)N[C@@H](Cc3ccccc3)C(=O)N[C@@H](Cc3c[nH]c4ccccc34)C(=O)N[C@@H](Cc3ccccc3)C(=O)N[C@@H](CC(C)C)C(=O)NC(CCCNC(=N)N)C(=O)NCC(N)=O)nn2)C(=O)N[C@H](C(=O)N[C@@H](Cc2ccccc2)C(=O)N[C@@H](Cc2ccc(O)cc2)C(=O)N[C@@H](CCCNC(=N)N)C(=O)N[C@@H](CC(C)C)C(=O)NCC(=O)N[C@@H](Cc2ccc(O)cc2)C(=O)NCCNC(=O)CCCCC2SCC3NC(=O)NC32)C(C)C)nn1)NC(C)=O)C(N)=O (some centres unmarked) [triligand]
- binding to GSK3β (GSK3β): significantly reduced
- specificity / selectivity for Akt1 (Akt1): selectivity for Akt1 is clearly enhanced
- overlap of binding site with anti-Akt1 antibody (Akt-S473E [1]): may partially overlap
- Ki (Akt1-S473E-T308P; V vs. [ATP], variable [Triligand], Dixon plot, mean ± standard deviation): 4 µM
- Ki (Akt1-S473E-T308P; V vs. [Peptide], variable [Triligand], Dixon plot, mean ± standard deviation): 2.6 µM
- Ki (Akt1-S473E-T308P; read-out: X-intercept of 1/Vmax(app) vs. [Triligand], varied ATP, wide error range based on the 95% CI): 5.8 µM
- Ki (Akt1-S473E-T308P; read-out: X-intercept of 1/Vmax(app) vs. [Triligand], varied peptide substrate): 1.7 µM
- X-intercept (−Ki′) of 1/KM(app) vs. [Triligand] (Akt1-S473E-T308P; varied peptide substrate): 3.6 µM
- Inhibition mode (Akt1-S473E-T308P; with respect to ATP): Noncompetitive
- Inhibition mode (Akt1-S473E-T308P; with respect to peptide substrate): Uncompetitive
- off-target binding to MEK1 (MEK1): completely eliminated
- Kd (Akt1-S473E): 0.2 µM
- immunoprecipitation of Akt (Akt [2]): somewhat increased immunoprecipitation of Akt relative to the biligand in induced cell lysates but not in the non-induced control cell lysate
- affinity gain (Akt-S473E [3]): 2-3 fold

Compound: dimer of the n-terminal triligand: dimerized n-terminal triligand targeted against Ser474 of Akt2 (FIG. 36E) (peptide 1 [dPra][dW][dK][dV][dK][dL]; peptide 2 FYGNH; peptide 3 YYRFG; numbers in words are those of the source; also: dimer of triligand, chains 2 and 3 stereochemistry not given here)
- effect on Akt kinase activity relative to DMSO (Akt2): activate Akt

Compound: fluorescein-conjugated biligand: biligand with fluorescein derivative on the amino terminus of the secondary peptide (FIG. 17) (chain 1 C8N3-VFYRLGY-NH2; chain 2 FWFLRG-NH2; triazole I:N-II:N; not fully specified (N-terminus); reading uncertain; also: triazole linkage between chains, fluorescein on amino terminus of secondary peptide)
- imaging of Akt localisation (Akt [4]): distinguishes cytoplasmic or membrane-bound AKT

Compound: monoligand: peptide wkvkl (SEQ ID NO:4) coupled to Ac2-Tz4-PEG2-Biotin; targeted against Ser474 of Akt2 ([dW][dK][dV][dK][dL]-NH2; not fully specified (N-terminus); printed as wkvkl; also: coupled to Ac2-Tz4-PEG2-Biotin)
- detection of Akt from cell lysate (Akt [5]): able to detect Akt from cell lysate
